Read-outs that look alike come from different tables or passages of the source.

The subject of assay [1] is cultured human mast cells (CHMC). The assay is described as follows: CHMC low cell density IgE activation: tryptase assay. The format is cell-based. The note with it: IgE activation. A digest of the protocol:
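Anti-IgE-driven degranulation of cultured human mast cells at low density, 1000–1500 cells/well, was induced over 30 min at 37 °C. It was scored by supernatant tryptase activity on a fluorogenic substrate.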

The next assay deals with T1, Syk kinase (Homo sapiens, UniProt P43405).
T1 construct: purchased Upstate, Lake Placid N.Y
The experiment in a line: Syk kinase biochemical fluorescence polarization assay. The following applies: 11 pt, read-out: fp_syk, 11 pt. The protocol:
Many of the 2,4-pyrimidinediamine compounds were tested for the ability to inhibit Syk kinase catalyzed phosphorylation of a peptide substrate in a biochemical fluorescenced polarization assay with isolated Syk kinase. In this experiment, Compounds were diluted to 1% DMSO in kinase buffer (20 mM HEPES, pH 7.4, 5 mM MgCl2, 2 mM MnCl2, 1 mM DTT, 0.1 mg/mL acetylated Bovine Gamma Globulin). Compound in 1% DMSO (0.2% DMSO final) was mixed with ATP/substrate solution at room temperature. Syk kinase (Upstate, Lake Placid N.Y.) was added to a final reaction volume of 20 uL, and the reaction was incubated for 30 minutes at room temperature. […] EDTA (10 mM final)/anti-phosphotyrosine antibody (1× final)/fluorescent phosphopeptide tracer (0.5× final) was added in FP Dilution Buffer to stop the reaction for a total volume of 40 uL according to manufacturer's instructions (PanVera Corporation) The plate was incubated for 30 minutes in the dark at room temperature. Plates were read on a Polarion fluorescence polarization plate reader (Tecan). Data were converted to amount of phosphopeptide present using a calibration curve generated by competition with the phosphopeptide competitor provided in the Tyrosine Kinase Assay Kit, Green (PanVera Corporation).

Assay [2] concerns cultured human mast cells (CHMC). The experiment in a line: CHMC low cell density ionomycin activation: tryptase assay. In kind it is cell-based. The note with it: read-out: LD Tryptase, CHMC, Iono, 3 pt.
[3] abbreviates: Homo sapiens, Mast cell, low cell density CHMC, tryptase, 3 pt, read-out: LD Tryptase, CHMC, IgE, 3 pt.
Where [4] appears, read: Homo sapiens, Mast cell, low cell density CHMC, tryptase, 8 pt, read-out: LD Tryptase, CHMC, IgE, 8 pt.
Setting [5] is: low cell density, 3 pt, read-out: LD Tryptase, CHMC, IgE, 3 pt.
The mark [6] stands for this setting: low cell density CHMC, tryptase, 3 pt.
[7] abbreviates: low cell density CHMC, tryptase, 3 pt, read-out: LD Tryptase, CHMC, IgE, 3 pt.
The mark [8] stands for this setting: low cell density CHMC, tryptase, 8 pt, read-out: LD Tryptase, CHMC, IgE, 8 pt.
[9] abbreviates: Homo sapiens, Mast cell, low cell density CHMC, tryptase, 3 pt.

As for `CNC(=O)c1cc2cccc(Nc3ncc(F)c(Nc4cc(OC)cc(OC)c4)n3)c2[nH]1` [Compound 368, N4-(3,5-Dimethoxyphenyl)-5-fluoro-N2-[2-(N-methylamino)carbonylindol-7-yl]-2,4-pyrimidinediamine], the IC50 (in assay [1] (setting [3]); at Syk kinase (isolated Syk kinase)) was < 10 µM throughout.
As for `COc1cc(Nc2nc(Nc3cccc4cc(C(=O)N(C)CCO)[nH]c34)ncc2F)cc(OC)c1` [Compound 384], the IC50 (in assay [1] (setting [3]); in assay [1] (setting [4]); at Syk kinase (isolated Syk kinase)) was < 10 µM throughout.
On to `COc1ccc(Nc2nc(Nc3cccc(-c4nnc(C(C)(C)C)o4)c3)ncc2F)cc1OC` [Compound 530, N2-[ (2-tert-Butyl-1,3,4-oxadiazol-5-yl)phenyl]-N4-(3,4-dimethoxyphenyl)-5-fluoro-2,4-pyrimidinediamine], for which the IC50 in assay [1] (setting [5]) is < 10 µM; in assay [1] (low cell density, 8 pt, read-out: LD Tryptase, CHMC, IgE, 8 pt), < 10 µM; at Syk kinase, < 10 µM.
In the case of `CNC(=O)CNC(=O)c1ccc(Nc2ncc(F)c(Nc3ccc4c(c3)NC(=O)[C@H](C)O4)n2)cc1` [Compound 1296, (S)-5-Fluoro-N2-[4-[N-(N-methylamino)carbonylmethylene]aminocarbonylphenyl]-N4-(2-methyl-3-oxo-2H,4H-benz[1,4]oxazin-6-yl)-2,4-pyrimidinediamine], the IC50 in assay [2] (setting [6]) was > 10 µM; in assay [1] (setting [7]), < 10 µM; in assay [1] (setting [8]), < 10 µM.
For the compound `CNC(=O)CNC(=O)c1ccc(Nc2ncc(F)c(Nc3ccc(Cl)c(Cl)c3)n2)cc1` [Compound 1300, N4-(3,4-Dichlorophenyl)-5-fluoro-N2-[4-[N-(N-methylamino)carbonylmethylene]aminocarbonylphenyl]-2,4-pyrimidinediamine], the IC50 in assay [2] (setting [6]) was > 10 µM; in assay [1] (setting [7]) it was < 10 µM; in assay [1] (setting [8]) it was < 10 µM.
For the compound `CNC(=O)CNC(=O)c1ccc(Nc2ncc(F)c(N(C)c3ccc(Cl)c(Cl)c3)n2)cc1` [Compound 1301, N4-(3,4-Dichlorophenyl)-5-fluoro-N4-methyl-N2-[4-[N-(N-methylamino)carbonylmethylene]aminocarbonylphenyl]-2,4-pyrimidinediamine], the IC50 is > 10 µM in assay [2] (setting [6]), < 10 µM in assay [1] (setting [7]) and < 10 µM in assay [1] (setting [8]).
For the compound `COC(=O)CCNC(=O)c1ccc(Nc2ncc(F)c(Nc3ccc4c(c3)NC(=O)C(C)(C)O4)n2)cc1` [Compound 1302, N4-(2,2-Dimethyl-3-oxo-4H-benz[1,4]oxazin-6-yl)-5-fluoro-N2-[4-[N-(2-methoxycarbonylethyl)aminocarbonyl]phenyl]-2,4-pyrimidinediamine], the IC50 in assay [2] (setting [9]), in assay [1] (setting [3]) and in assay [1] (setting [4]) was < 10 µM each time.
Take `COC(=O)CCNC(=O)c1ccc(Nc2ncc(F)c(Nc3ccc4c(c3)NC(=O)[C@H](C)O4)n2)cc1` [Compound 1303, (S)-5-Fluoro-N2-[4-[N-(2-methoxycarbonylethyl)aminocarbonyl]phenyl]-N4-(2-methyl-3-oxo-2H,4H-benz[1,4]oxazin-6-yl)-2,4-pyrimidinediamine]: the IC50 in assay [2] (setting [9]) was > 10 µM; in assay [1] (setting [3]), < 10 µM; in assay [1] (setting [4]), < 10 µM.
In the case of `COC(=O)CCNC(=O)c1ccc(Nc2ncc(F)c(Nc3ccc4c(c3)NC(=O)C(F)(F)O4)n2)cc1` [Compound 1304], the values for the IC50 in assay [2] (setting [9]), in assay [1] (setting [3]) and in assay [1] (setting [4]) were > 10 µM, < 10 µM and < 10 µM, respectively.
Turning to `COC(=O)CCNC(=O)c1ccc(Nc2ncc(F)c(Nc3ccc(Cl)c(Cl)c3)n2)cc1` [Compound 1305], the IC50 in assay [2] (setting [9]), in assay [1] (setting [3]) and in assay [1] (setting [4]) was < 10 µM in each case.
Take `COC(=O)CCNC(=O)c1ccc(Nc2ncc(F)c(N(C)c3ccc(Cl)c(Cl)c3)n2)cc1` [Compound 1306]: the IC50 is > 10 µM in assay [2] (setting [9]), < 10 µM in assay [1] (setting [3]) and < 10 µM in assay [1] (setting [4]).
In the case of `CC(C)(C)OC(=O)NCC(=O)NCc1ccc(Nc2ncc(F)c(Nc3ccc4c(c3)NC(=O)C(C)(C)O4)n2)cc1` [Compound 1307, N2-[4-[1-(tert-Butoxycarbonylamino)methylenecarbonylamino]methylphenyl]-N4-(2,2-dimethyl-3-oxo-4H-benz[1,4]oxazin-6-yl)-5-fluoro-2,4-pyrimidinediamine], the IC50 in assay [2] (setting [6]), in assay [1] (setting [7]) and in assay [1] (setting [8]) was < 10 µM throughout.
Take `C[C@@H]1Oc2ccc(Nc3nc(Nc4ccc(CNC(=O)CNC(=O)OC(C)(C)C)cc4)ncc3F)cc2NC1=O` [Compound 1308, (S)-N2-[4-[1-(tert-Butoxycarbonylamino)methylenecarbonylamino]methylphenyl]-5-fluoro-N4-(2-methyl-3-oxo-2H,4H-benz[1,4]oxazin-6-yl)-2,4-pyrimidinediamine]: the IC50 in assay [2] (setting [6]), in assay [1] (setting [7]) and in assay [1] (setting [8]) was < 10 µM throughout.
`CC(C)(C)OC(=O)NCC(=O)NCc1ccc(Nc2ncc(F)c(Nc3ccc4c(c3)NC(=O)C(F)(F)O4)n2)cc1` [Compound 1309, N2-[4-[1-(tert-Butoxycarbonylamino)methylenecarbonylamino]methylphenyl]-N4-(2,2-difluoro-3-oxo-4H-benz[1,4]oxazin-6-yl)-5-fluoro-2,4-pyrimidinediamine]: the IC50 is > 10 µM in assay [2] (setting [6]), < 10 µM in assay [1] (setting [7]) and < 10 µM in assay [1] (setting [8]).
`CC(C)(C)OC(=O)NCC(=O)NCc1ccc(Nc2ncc(F)c(Nc3ccc(Cl)c(Cl)c3)n2)cc1` [Compound 1310, N2-[4-[1-(tert-Butoxycarbonylamino)methylenecarbonylamino]methylphenyl]-N4-(3,4-dichlorophenyl)-5-fluoro-2,4-pyrimidinediamine]: the IC50 in assay [2] (setting [6]), in assay [1] (setting [7]) and in assay [1] (setting [8]) was < 10 µM throughout.
With “(R)-5-Fluoro-N2-[4- (N-methoxycarbonylmethyleneamino)carbonylphenyl]-N4- (2-methyl-3-oxo-2H,4H-benz[1,4]oxazin-6-yl)-2,4-pyrimidinediamine [Compound 1272]”, the values for the IC50 in assay [2] (setting [6]) and in assay [1] (setting [8]) were > 10 µM and < 10 µM, respectively.
On the same counts, the results for “(S)-5-Fluoro-N2-[4- (N-methoxycarbonylmethyleneamino)carbonylphenyl]-N4- (2-methyl-3-oxo-2H,4H-benz[1,4]oxazin-6-yl)-2,4-pyrimidinediamine [Compound 1271]” are > 10 µM and < 10 µM.
For “N2- (3-Chloro-4-methoxyphenyl)-N4- (2,2-dimethyl-3-oxo-4H-benz[1,4]oxazin-6-yl)-5-fluoro-N4-methyl-2,4-pyrimidinediamine [Compound 394]”, the IC50 in assay [2] (setting [6]) and in assay [1] (setting [7]) was < 10 µM each time.
In the case of “N2- (Bis-2-hydroxyethyl)-N4- (3,4-ethylenedioxyphenyl)-5-fluoro-N4-methyl-2,4-pyrimidinediamine [Compound 492]”, the IC50 is > 10 µM in assay [2] (low cell density, 3 pt) and > 10 µM in assay [1] (setting [5]).
On to “N2-[4-[1- (tert-Butoxycarbonylamino)methylenecarbonylamino]methylphenyl]-N4- (3,4-dichlorophenyl)-5-fluoro-N4-methyl-2,4-pyrimidinediamine [Compound 1311]”, for which the figures for the IC50 in assay [2] (setting [6]) and in assay [1] (setting [7]) were > 10 µM and < 10 µM, respectively.
Turning to “N4- (2,2-Difluoro-3-oxo-4H-benz[1,4]oxazin-6-yl)-5-fluoro-N2-[4-[N- (N-methylamino)carbonylmethylene]aminocarbonylphenyl]-2,4-pyrimidinediamine [Compound 1297]”, the figures for the IC50 in assay [2] (setting [6]) and in assay [1] (setting [7]) were > 10 µM and < 10 µM, respectively.
As for “N4- (2,2-Dimethyl-3-oxo-4H-benz[1,4]oxazin-6-yl)-5-fluoro-N2-(1-methylindazol-6-yl)-2,4-pyrimidinediamine p-Hydroxybenzenesulfonic Acid Salt [Compound 768]”, the IC50 in assay [2] (setting [6]) is > 10 µM; in assay [1] (setting [7]) it was < 10 µM; in assay [1] (setting [8]), < 10 µM.
Turning to “N4- (4-Chloro-3-methoxyphenyl)-5-fluoro-N2-[1-(methoxycarbonylmethylene)indol-5-yl]-2,4-pyrimidinediamine [Compound 645]”, the IC50 in assay [2] (low cell density CHMC, tryptase release, 3 point) is > 10 µM; in assay [1] (low cell density CHMC, tryptase release, 3 point, read-out: LD Tryptase, CHMC, IgE, 3 pt), < 10 µM; in assay [1] (low cell density CHMC, tryptase release, 8 point, read-out: LD Tryptase, CHMC, IgE, 8 pt) it was < 10 µM.

For the origin of these results see US20220073536A1 (Rigel Pharmaceuticals, Inc., priority 2003, published 2022).
